Assay [1] addresses T1, Avi-KRAS G12D (1-169) GppNHp/RAF1 RBD-3×FLAG (52-151) (Homo sapiens, UniProt P01116, G12D).
T1 construct: Avi-KRAS G12D (1-169) GppNHp
The assay is described as follows: HTRF Raf1-KRAS G12D-GppNHp disruption assay. The class given is biochemical. Particulars: 1 h incubation. In a few lines: (§1)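 Compounds titrated from 100 μM in a 10-point series, incubated with protein mix 1 h at room temperature, then HTRF reagents a further 1 h. Time-resolved fluorescence read (excitation 320 nm, emission 615 nm); activity expressed as percentage of DMSO control.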
(In general: Time-resolved FRET reads energy transfer from a long-lived donor to a nearby acceptor.)

The target of assay [2] is T2, Avi-KRAS G12D/Q25A (1-169) GppNHp/3×FLAG-PI3KCA (157-299) (Homo sapiens, UniProt P01116, G12D/Q25A).
T2 construct: Avi-KRAS G12D/Q25A (1-169) GppNHp
The assay is described as follows: HTRF PI3KCA-KRAS G12D/Q25A-GppNHp disruption assay. Format: biochemical. Particulars: 1 h incubation. An outline of the steps: as §1

Assay [3] relates to pERK in GP2d cells (KRAS G12D). The assay is described as follows: Cell-based pERK HTRF assay. To be noted: 60 min incubation. On the procedure: Biological Example 3. Cell-Based pERK HTRF Assay
pERK assay (Perkin Elmer) was used to determine the effectiveness of compounds in disrupting KRAS G12D protein/effector signaling in cells.
On Day 1, cells (GP2d) were seeded into 96-well plates at 3×10^4 cells/well in 80 μl complete growth media (DMEM, 10% FBS).
On Day 2, cells were treated with compounds at 0.25% DMSO. The source plate was created with compounds diluted in media at 5-fold the final assay concentration. The compounds were run in a 9-point concentration curve starting at 1 μM, with a half-log dilution between concentrations. 20 μL was transferred onto the cell plates (final volume in wells was 100 μL). Plates were harvested after 60 min incubation by aspirating media and adding kit-supplied 1× supplemented lysis buffer to all wells (50 μl per well). Plates were then placed on a plate shaker and incubated at 850 rpm for an additional 30 min.
Antibody mixture solution is prepared by diluting aliquoted d2 and Eu Cryptate antibodies 1:20 in kit supplied detection buffer, mix the diluted antibodies solutions (1:1 v:v). Four μL of this solution is then added to a 384-well detection plate (Perkin Elmer; 6008230).
Samples were homogenized by pipetting up and down and then transferred (16 μL of cell lysates) from the 96-well cell culture plate to two wells of the HTRF 384-well detection plate containing the antibody solution. Plates were centrifuged (524 g for 1 min) and allowed to incubate between 4 and 24 h at room temperature. Maximum signal is reached after 4 h incubation time and remains stable over a period of 24 hours. Therefore, readings can be made between 4 and 24 h of incubation. Plates were centrifuged again (524 g for 1 min), then analyzed on the EnVision plate reader using the following settings: Excitation 320 nm, Bandwidth 75 nm; Emission 615 nm, Bandwidth 85 nm; Gain 100%; Flashes 100; Lag 60 μs.

Molecules are shown by their SMILES. Like-named read-outs stand apart in the source and are kept apart here.

T2 sequence (P01116 1-169 isoform P01116-2 G12D/Q25A limits assumed): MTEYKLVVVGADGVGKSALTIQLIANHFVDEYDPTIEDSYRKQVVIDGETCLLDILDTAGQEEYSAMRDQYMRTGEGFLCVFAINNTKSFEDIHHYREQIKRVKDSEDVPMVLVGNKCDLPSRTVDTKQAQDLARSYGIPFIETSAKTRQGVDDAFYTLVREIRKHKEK
T1 sequence (P01116 1-169 isoform P01116-2 G12D limits assumed): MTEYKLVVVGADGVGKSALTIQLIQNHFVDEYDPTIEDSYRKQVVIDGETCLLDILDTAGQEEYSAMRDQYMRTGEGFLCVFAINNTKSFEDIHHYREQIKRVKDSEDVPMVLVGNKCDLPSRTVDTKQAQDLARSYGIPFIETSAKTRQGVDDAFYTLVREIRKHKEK

For the compound `Nc1nc2c(-c3cc4nc(OC[C@@]56CCCN5C[C@H](F)C6)nc(O[C@H]5CNC[C@@H]5F)c4cc3C(F)(F)F)ccc(F)c2s1` [Compound 374], the IC50 in assay [1] is 1 to 10 µM; in assay [2], 10 to 30 µM; in assay [3] (GP2d, 1 h), > 1 µM.

In the case of `CN(c1nc(OC[C@@]23CCCN2C[C@H](F)C3)nc2c(F)c(-c3ccc(F)c4sc(N)nc34)c(C(F)(F)F)cc12)[C@@H]1CNCC1(C)C` [Compound 293], the IC50 in assay [1] lay in the range of 0.1 to 1 µM; in assay [2] it was 0.1 to 1 µM; in assay [3] (GP2d, 1 h) it was 0.1 to 1 µM.

On to `CN(c1nc(OC[C@@]23CCCN2C[C@H](F)C3)nc2cc(-c3ccc(F)c4sc(N)c(C#N)c34)c(C(F)(F)F)cc12)[C@H]1CNC[C@H]1F` [Compound 347], for which the IC50 is 0.1 to 1 µM in assay [1]; 0.1 to 1 µM in assay [2]; ≤ 0.1 µM in assay [3] (GP2d, 1 h).

On to `Nc1nc2c(-c3c(C(F)(F)F)cc4c(N5CC6CCC5CN6)nc(OC[C@@]56CCCN5C[C@H](F)C6)nc4c3F)ccc(F)c2s1` (stereo partly drawn) [Compound 223], for which the IC50 is 0.1 to 1 µM in assay [1]; 0.1 to 1 µM in assay [2]; ≤ 0.1 µM in assay [3] (GP2d, 1 h).

In the case of `Nc1nc2c(-c3cc4nc(OC[C@@]56CCCN5C[C@H](F)C6)nc(N5CC6CCC(C5)N6)c4cc3C(F)(F)F)ccc(F)c2s1` [Compound 313], the IC50 was 0.1 to 1 µM in assay [1]; 1 to 10 µM in assay [2]; ≤ 0.1 µM in assay [3] (GP2d, 1 h).

As to `NCC(=O)N1CCN(c2nc(OCC34CCCN3CCC4)nc3c(F)c(-c4ccc(F)c5sc(N)nc45)c(C(F)(F)F)cc23)CC1` [Compound 127], the IC50 in assay [1] is 0.1 to 1 µM; in assay [2] it was 1 to 10 µM; in assay [3] (GP2d, 1 h), > 1 µM.

Regarding `Nc1nc2c(-c3c(C(F)(F)F)cc4c(NC5CNC5)nc(OCC56CCCN5CCC6)nc4c3F)ccc(F)c2o1` [Compound 199], the IC50 in assay [1] is 0.1 to 1 µM; in assay [2] it was 1 to 10 µM; in assay [3] (GP2d, 1 h), > 1 µM.

`Nc1nc2c(-c3c(C(F)(F)F)cc4c(N5CC[C@@H]6NCC[C@@H]65)nc(OCC56CCCN5CCC6)nc4c3F)ccc(F)c2s1` [Compound 333]: the IC50 in assay [1] is 1 to 10 µM; in assay [2], 1 to 10 µM; in assay [3] (GP2d, 1 h), > 1 µM.

As for `CCN1[C@@H]2CC[C@H]1CN(c1nc(OC[C@@]34CCCN3C[C@H](F)C4)nc3c(F)c(-c4ccc(F)c5sc(N)nc45)c(C(F)(F)F)cc13)C2` [Compound 315, 4-(4-((1R,5S)-8-ethyl-3,8-diazabicyclo[3.2.1]octan-3-yl)-8-fluoro-2-(((2R,7aS)-2-fluorotetrahydro-1H-pyrrolizin-7a(5H)-yl)methoxy)-6-(trifluoromethyl)quinazolin-7-yl)-7-fluorobenzo[d]thiazol-2-amine], the IC50 in assay [1] lay within 1 to 10 µM; in assay [2], 10 to 30 µM; in assay [3] (GP2d, 1 h), 0.1 to 1 µM.

Turning to `CC(C)N1C2CCC1CN(c1nc(OC[C@@]34CCCN3C[C@H](F)C4)nc3c(F)c(-c4ccc(F)c5sc(N)nc45)c(C(F)(F)F)cc13)C2` [Compound 316], the IC50 lay in the range of 1 to 10 µM in assay [1]; 1 to 10 µM in assay [2]; 0.1 to 1 µM in assay [3] (GP2d, 1 h).

As for `N#Cc1c(N)sc2c(F)ccc(-c3c(C(F)(F)F)cc4c(N5CC6CCC(C5)N6)nc(OCC5(CN6CC[C@@H](F)C6)CC5)nc4c3F)c12` [Compound 330], the IC50 in assay [1] is ≤ 0.1 µM; in assay [2], 0.1 to 1 µM; in assay [3] (GP2d, 1 h) it was ≤ 0.1 µM.

In the case of `Nc1nc2c(-c3c(C(F)(F)F)cc4c(N5CC[C@H]6CCNC[C@H]65)nc(OCC56CCCN5CCC6)nc4c3F)ccc(F)c2s1` [Compound 348], the IC50 in assay [1] was 1 to 10 µM; in assay [2], 1 to 10 µM; in assay [3] (GP2d, 1 h), > 1 µM.

As to `Nc1nc2c(-c3c(C(F)F)cc4c(N5C[C@H]6CC[C@@H](C5)N6)nc(OC[C@@]56CCCN5C[C@H](F)C6)nc4c3Cl)ccc(F)c2s1` [Compound 368, 4-(4-((1R,5S)-3,8-diazabicyclo[3.2.1]octan-3-yl)-8-chloro-6-(difluoromethyl)-2-(((2R,7aS)-2-fluorotetrahydro-1H-pyrrolizin-7a(5H)-yl)methoxy)quinazolin-7-yl)-7-fluorobenzo[d]thiazol-2-amine], the IC50 was 0.1 to 1 µM in assay [1]; 0.1 to 1 µM in assay [2]; ≤ 0.1 µM in assay [3] (GP2d, 1 h).

With `N#Cc1c(N)sc2c(F)ccc(-c3c(C(F)(F)F)cc4c(N5C[C@H]6CC[C@@H](C5)N6)nc(N5CC(N6CC7(CC7)C6)C5)nc4c3F)c12` [Compound 363, 4-(2-(3-(5-azaspiro[2.3]hexan-5-yl)azetidin-1-yl)-4-((1R,5S)-3,8-diazabicyclo[3.2.1]octan-3-yl)-8-fluoro-6-(trifluoromethyl)quinazolin-7-yl)-2-amino-7-fluorobenzo[b]thiophene-3-carbonitrile], the IC50 was 0.1 to 1 µM in assay [1]; 0.1 to 1 µM in assay [2]; ≤ 0.1 µM in assay [3] (GP2d, 1 h).

`Nc1nc2c(-c3c(C(F)(F)F)cc4c(N5CC6COCC(C5)N6)nc(OC[C@@]56CCCN5C[C@H](F)C6)nc4c3F)ccc(F)c2s1` [Compound 300]: the IC50 in assay [1] was in the range of 0.1 to 1 µM; in assay [2], 0.1 to 1 µM; in assay [3] (GP2d, 1 h), 0.1 to 1 µM.

On to `N#Cc1c(N)sc2c(F)ccc(-c3c(C(F)(F)F)cc4c(N5CC6CCC(C5)N6)nc(OC[C@@]56CCCN5C[C@H](F)C6)nc4c3F)c12` (single isomer, unassigned) [Compound 367], for which the IC50 fell in the range of 1 to 10 µM in assay [1], 1 to 10 µM in assay [2] and 0.1 to 1 µM in assay [3] (read-out: pERK-Gp2D-1hr).

On to `N#Cc1c(N)sc2c(F)ccc(-c3c(C(F)(F)F)cc4c(N5CC6CCC(C5)N6)nc(OCC5(CN6CCOCC6)CC5)nc4c3F)c12` [Compound 337], for which the IC50 is ≤ 0.1 µM in assay [1]; 0.1 to 1 µM in assay [2]; ≤ 0.1 µM in assay [3] (GP2d, 1 h).

With `CN(c1nc(OC[C@@]23CCCN2C[C@H](F)C3)nc2c(F)c(-c3ccc(F)c4sc(N)nc34)c(C(F)(F)F)cc12)[C@H]1CNCC1(C)C` [Compound 325], the IC50 was 1 to 10 µM in assay [1]; 1 to 10 µM in assay [2]; > 1 µM in assay [3] (GP2d, 1 h).

Turning to `C[C@@H]1C[C@@H](N(C)c2nc(OC[C@@]34CCCN3C[C@H](F)C4)nc3c(F)c(-c4ccc(F)c5sc(N)nc45)c(C(F)(F)F)cc23)CN1` [Compound 283], the IC50 in assay [1] lay within 0.1 to 1 µM; in assay [2] it was 0.1 to 1 µM; in assay [3] (GP2d, 1 h) it was 0.1 to 1 µM.

Take `C[C@@H]1C[C@@H](N(C)c2nc(OC[C@@]34CCCN3C[C@H](F)C4)nc3cc(-c4ccc(F)c5sc(N)nc45)c(C(F)(F)F)cc23)CN1` [Compound 336]: the IC50 in assay [1] lay in the range of 0.1 to 1 µM; in assay [2] it was 1 to 10 µM; in assay [3] (GP2d, 1 h), 0.1 to 1 µM.

With `Nc1nc2c(-c3c(C(F)(F)F)cc4c(NC5CC6CC[C@H](C5)N6)nc(OCC56CCCN5CCC6)nc4c3F)ccc(F)c2s1` (stereo partly drawn) [Compound 264], the IC50 in assay [1] was 0.1 to 1 µM; in assay [2] it was 0.1 to 1 µM; in assay [3] (GP2d, 1 h), > 1 µM.

With `Nc1nc2c(-c3c(C(F)(F)F)cc4c(N[C@H]5CCC[C@@H](N)C5)nc(OCC56CCCN5CCC6)nc4c3F)ccc(F)c2s1` [Compound 329], the IC50 in assay [1] was 10 to 30 µM; in assay [2] it was 10 to 30 µM; in assay [3] (GP2d, 1 h), > 1 µM.

`Nc1nc2c(-c3c(C(F)(F)F)cc4c(N[C@H]5CCC6(CNC6)C5)nc(OCC56CCCN5CCC6)nc4c3F)ccc(F)c2s1` [Compound 335]: the IC50 was 0.1 to 1 µM in assay [1]; 0.1 to 1 µM in assay [2]; > 1 µM in assay [3] (GP2d, 1 h).

For the compound `C[C@H]1C[C@@H](N(C)c2nc(OC[C@@]34CCCN3C[C@H](F)C4)nc3c(F)c(-c4ccc(F)c5sc(N)nc45)c(C(F)(F)F)cc23)CN1` [Compound 311], the IC50 in assay [1] was 0.1 to 1 µM; in assay [2], 10 to 30 µM; in assay [3] (GP2d, 1 h), ≤ 0.1 µM.

Turning to `CN(c1nc(OC[C@@]23CCCN2C[C@H](F)C3)nc2c(F)c(-c3ccc(F)c4sc(N)c(C#N)c34)c(Cl)cc12)[C@@H]1CCNC1` [Compound 379], the IC50 is 0.1 to 1 µM in assay [1]; 0.1 to 1 µM in assay [2]; ≤ 0.1 µM in assay [3] (GP2d, 1 h).

As to `CN(c1nc(OC[C@@]23CCCN2C[C@H](F)C3)nc2c(F)c(-c3ccc(F)c4sc(N)c(C#N)c34)c(C(F)(F)F)cc12)[C@H]1CNC[C@@H]1F` [Compound 355], the IC50 was 0.1 to 1 µM in assay [1]; 1 to 10 µM in assay [2]; ≤ 0.1 µM in assay [3] (GP2d, 1 h).

For the compound `N#Cc1c(N)sc2c(F)ccc(-c3c(C(F)(F)F)cc4c(N5CC6CCC(C5)N6)nc(OC[C@@]56CCCN5C[C@H](F)C6)nc4c3F)c12` (single isomer, unassigned) [Compound 366], the IC50 was ≤ 0.1 µM in assay [1]; ≤ 0.1 µM in assay [2]; ≤ 0.1 µM in assay [3] (GP2d, 1 h).

These data come from patent publication US20240246954A1, “COMPOSITIONS AND METHODS FOR INHIBITING KRAS” (TheRas, Inc., priority 2021, published 2024).
